Results: US8318781B2, “G-protein-conjugated receptor agonist” (Japan Science and Technology Agency, priority 2007, dated 2012)

Tests used:
human GPR120 (hGPR120) [1] = target: T1, human GPR120 (hGPR120) (Homo sapiens, UniProt Q5NUL3); assay: Determination of intracellular Ca2+ concentration (FLIPR), cell line GPR120/Flp-in; assay type: cell-based; conditions: GPR120/Flp-in cells; for EC50: maximum fluorescence intensity vs ligand concentration, read-out: [Ca^2+]/GPR120/Flp-In pEC50 (converted); for [Ca^2+]/GPR120/Flp-In 10 μM (ratio vs. LA): relative fluorescence intensity vs LA at 10 μM
T1 construct: expressed in transfected cells; doxycycline-inducible expression vector
T1 sequence (Q5NUL3 1-361): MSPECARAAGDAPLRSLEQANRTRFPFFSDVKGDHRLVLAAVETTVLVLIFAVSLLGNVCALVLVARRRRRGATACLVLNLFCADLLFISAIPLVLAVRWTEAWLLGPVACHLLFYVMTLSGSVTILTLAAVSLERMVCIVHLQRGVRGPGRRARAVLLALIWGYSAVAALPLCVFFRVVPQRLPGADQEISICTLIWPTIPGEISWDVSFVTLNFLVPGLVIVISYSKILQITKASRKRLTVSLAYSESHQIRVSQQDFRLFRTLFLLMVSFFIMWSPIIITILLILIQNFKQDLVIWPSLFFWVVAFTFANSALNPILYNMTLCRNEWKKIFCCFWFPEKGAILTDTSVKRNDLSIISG

human GPR120 (hGPR120) [2] = target: T1, human GPR120 (hGPR120); assay: Determination of intracellular Ca2+ concentration (FLIPR), cell line TXGPR120; assay type: cell-based; conditions: for selectivity between GPR40 and GPR120 (in words), from Tables 3 and 4: GPR40 versus GPR120, Ca2+ and ERK results; for EC50 / [Ca^2+]/GPR120 10 μM (ratio vs. LA): TXGPR120 cells; for EC50: maximum fluorescence intensity vs ligand concentration, read-out: [Ca^2+]/GPR120 pEC50 (converted); for agonistic activity for hGPR120 (in words): cells in which GPR120 has been transgenically expressed; for [Ca^2+]/GPR120 10 μM (ratio vs. LA): relative fluorescence intensity vs LA at 10 μM

Compound	EC50 (human GPR120 (hGPR120) [1]) [µM]	[Ca^2+]/GPR120/Flp-In 10 μM (ratio vs. LA) (human GPR120 (hGPR120) [1])	selectivity between GPR40 and GPR120 (in words), from Tables 3 and 4 (human GPR120 (hGPR120) [2])	EC50 (human GPR120 (hGPR120) [2]) [µM]	agonistic activity for hGPR120 (in words) (human GPR120 (hGPR120) [2])	[Ca^2+]/GPR120 10 μM (ratio vs. LA) (human GPR120 (hGPR120) [2])
O=C(O)CCCc1ccc(OCCN(c2ccccc2)c2nccs2)cc1 [NCG46]	1.66	1.06	acting relatively mildly for GPR40 but acting strongly for GPR120	5.25	exhibit a similar effect	1.60
CN(C)c1ccc(N(CCOc2ccc(CCCC(=O)O)cc2)c2ccccn2)cc1 [NCG54]	2.4	0.92	acting relatively mildly for GPR40 but acting strongly for GPR120	15.8	exhibit a similar effect	0.66
